Consider one compound from ChEMBL document CHEMBL5528022, “Discovery of a brain-permeable bromodomain and extra terminal domain (BET) inhibitor with selectivity for BD1 for the treatment of multiple sclerosis” (Eur J Med Chem, 2024).

Molecules are shown by their SMILES.

Series [1] is described as follows: Mean residence time in Sprague-Dawley rat at 25 mg/kg, po measured upto 25 hrs by LC-MS/MS analysis. In kind it is ADME, organism-based. As to conditions: in vivo.
Series [2] is described as follows: Tmax in C57BL/6 mouse brain at 5 mg/kg, iv measured upto 25 hrs by LC-MS/MS analysis. In kind it is ADME, organism-based.
The nature of series [3]: Selectivity ratio of IC50 for inhibition of BRD3 BD2 (unknown origin) to IC50 for inhibition of BRD3 BD1 (unknown origin).
Series [4] has as its target T1, Bromodomain-containing protein 4 (Homo sapiens, UniProt O60885). Briefly: Binding affinity to BRD4 BD1 (unknown origin) assessed as change in gibbs free energy by ITC method.
Series [5] in a line: Oral bioavailability in Sprague-Dawley rat at 25 mg/kg measured upto 25 hrs by LC-MS/MS analysis. The settings on record: in vivo. In kind it is ADME, organism-based.
A short description of series [6]: Cmax in C57BL/6 mouse brain at 5 mg/kg, iv measured upto 25 hrs by LC-MS/MS analysis. In kind it is ADME, organism-based.
Series [7] addresses T2, Bromodomain testis-specific protein (Homo sapiens, UniProt Q58F21). Briefly: Inhibition of BRDT BD2 (unknown origin) incubated for 15 mins by HTRF method. (In TR-FRET formats the signal depends on donor and acceptor labels being close together.)
Series [8] deals with Bromodomain-containing protein 2 (Homo sapiens, UniProt P25440). Briefly: Inhibition of BRD2 BD2 (unknown origin) incubated for 15 mins by HTRF method.
Bromodomain-containing protein 2, sequence (P25440 whole entry): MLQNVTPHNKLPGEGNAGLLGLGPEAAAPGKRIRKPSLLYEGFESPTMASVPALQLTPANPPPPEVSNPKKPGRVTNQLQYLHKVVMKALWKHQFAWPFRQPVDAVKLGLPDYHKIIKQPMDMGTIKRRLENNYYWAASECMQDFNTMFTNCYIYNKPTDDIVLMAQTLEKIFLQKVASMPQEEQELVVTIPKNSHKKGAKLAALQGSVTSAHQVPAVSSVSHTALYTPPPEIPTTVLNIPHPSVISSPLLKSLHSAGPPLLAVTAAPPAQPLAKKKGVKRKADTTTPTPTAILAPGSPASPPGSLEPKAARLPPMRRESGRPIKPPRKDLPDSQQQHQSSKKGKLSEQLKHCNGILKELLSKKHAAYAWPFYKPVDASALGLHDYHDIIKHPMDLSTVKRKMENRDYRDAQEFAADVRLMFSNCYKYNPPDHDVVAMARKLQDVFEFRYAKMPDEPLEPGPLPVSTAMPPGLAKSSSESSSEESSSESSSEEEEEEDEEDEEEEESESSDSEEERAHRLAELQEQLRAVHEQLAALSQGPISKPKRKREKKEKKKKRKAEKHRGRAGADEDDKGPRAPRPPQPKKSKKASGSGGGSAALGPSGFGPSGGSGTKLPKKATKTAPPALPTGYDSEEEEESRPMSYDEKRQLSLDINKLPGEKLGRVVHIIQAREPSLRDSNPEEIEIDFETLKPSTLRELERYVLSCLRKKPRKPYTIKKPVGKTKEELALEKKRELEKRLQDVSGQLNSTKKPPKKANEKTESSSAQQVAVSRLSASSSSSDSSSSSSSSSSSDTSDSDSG
Series [9] can be described thus: Selectivity ratio of Kd for binding affinity to BRD4 BD2 (unknown origin) by MST assay to Kd for binding affinity to BRD4 BD1 (unknown origin) by MST assay.
The nature of series [10]: Tmax in Sprague-Dawley rat at 25 mg/kg, po measured upto 25 hrs by LC-MS/MS analysis. In kind it is ADME, organism-based. The settings on record: in vivo.
Series [11] deals with T1, Bromodomain-containing protein 4. The series is described as follows: Binding affinity to BRD4 BD1 (unknown origin) expressed in Escherichia coli BL21 (DE3) by ITC assay.
Series [12] shares this target. The series is described as follows: Binding affinity to BRD4 BD2 (unknown origin) assessed as change in entropy by ITC method. For orientation: In ITC the heat of successive injections is recorded.
Series [13] in a line: Lipophilicity, logD of compound at pH 7.4 by LC-MS/MS based shake bottle method. The settings on record: buffer. In kind it is physicochemical.
Series [14] in a line: Selectivity ratio of IC50 for inhibition of BRD2 BD2 (unknown origin) to IC50 for inhibition of BRD2 BD1 (unknown origin).
The target of series [15] is T2, Bromodomain testis-specific protein. The series is described as follows: Inhibition of BRDT BD1 (unknown origin) incubated for 15 mins by HTRF method.
The target in series [16] is T1, Bromodomain-containing protein 4. Briefly: Binding affinity to BRD4 BD1 (unknown origin) assessed as change in enthalpy by ITC method.
Series [17] is described as follows: Cmax in C57BL/6 mouse spinal cord at 5 mg/kg, iv measured upto 25 hrs by LC-MS/MS analysis. It is filed as ADME, organism-based.
A short description of series [18]: Half life in Sprague-Dawley rat at 25 mg/kg, po measured upto 25 hrs by LC-MS/MS analysis. As to conditions: in vivo. In kind it is ADME, organism-based.

Turning to `Cc1nn(CC2CC2)c(C)c1-c1cncc(-c2ccnc3nc[nH]c23)c1`, the MRT (as a rule, the average time that molecules of a dose stay in the body) in series [1] was determined as 8.93 h. For the same compound, the time of peak concentration (Tmax) (usually the time from dosing to the highest level) in series [2] was found to be 1 h; in series [10] it was 0.25 h. Also, the Ratio IC50 in [3] was determined as 11; in series [14] it was 4. For the same compound, the deltaG in series [4] was -8.55 kcal/mol. For the same compound, in [5], the bioavailability (in general, the share of a dose that reaches the circulation, judged against a reference dose that is usually intravenous) was 22%. Also, the figures for the maximum concentration (Cmax) in series [6] and in series [17] were 7.91 µM and 3 µM, respectively. In addition, the IC50 (in general, the concentration that gives 50% inhibition) in series [7] is 3040 nM; in series [8], 2090 nM; in [15] it was 4750 nM. Further, the Selectivity ratio in series [9] was 60. Further, the affinity in series [11], expressed as Kd, was 540 nM. Further, the TdeltaS in [12] is -0.533 kcal/mol. Further, the logD (in general, lipophilicity at a set pH, counting ionised and neutral species) in [13] came out at 2.31. The deltaH in [16] is -15.6 kcal/mol. In series [18], the half-life (as a rule, how long it takes for the measured level to halve) is 6.31 h.
